# Reference: US8017786B2, “Substituted β-phenyl-α-hydroxy-propanoic acid, synthesis method and use thereof” (Northwest University, priority 2006, dated 2011)
# Tests used:
# [1] = test system: PPARγ; assay: Immunohistochemistry protein expression in I/R myocardial tissue: PPARγ; format: in vivo, rat; conditions: 5 days, ischemia 30 min, reperfusion 2 h
# Protocol: (§1) 52 SD rats having a body weight of 220±20 g were randomly divided into model control group, salviannic acid injection group (in 1 mL/kg), and group of bornyl β-(3,4-dihydroxylphenyl)-α-hydroxylpropionate ester at a small, middle and large dose (ip 5, 15, 35 mg/kg). The rats of the normal group and the model control group were ip administered with equal-volume of physiologic saline. The rats of all groups were administered for consecutive 5 days. When the rats were administered for the last time, they were simultaneously anesthetized with 1.5% pentobarbital sodium (ip 45 mg/kg), then a catheter was inserted into the right carotid artery, and connected via a transducer to an eight-channeled physiological recorder. Tracheal cannula was performed, and the ventilation rate was maintained at 60 times/min. The chest was opened, a 6/0 suture was used to form a loop at a site 1˜2 mm from the root of the anterior descending coronary artery, and a plastic pipe was introduced through the loop, then the loop was tightened up. The change of electrocardiogram was observed. An increase or decrease of ST indicated the success of ligation. The color of the myocardial tissue below the ligation suture became darker. 30 minutes later, the plastic pipe was pulled out to allow coronary artery blood flowing again and cause hyperemia of local tissue during reperfusion. For the groups subjected to ischemia for 30 min and reperfusion for 30 min, the myocardial infarction areas were recorded before the test, after ischemia for 1 min and 30 min, and after reperfusion for 30 min; for the groups subjected to ischemia for 30 min and reperfusion for 2 h, cardiac tissue samples were taken and fixed using 10% formalin, embedded with paraffin, serially sliced into sections with a thickness of 4 μm, and separately subjected to immunohistochemistry tests; the rats of the sham operation group were subjected only to the introduction of suture but their coronary arteries were not ligated.
# Standard immunohistochemistry ABC and SP methods were employed for staining. Bax: anti-rabbit polyclonal antibody (Santa CruzBio. Inc.) at a dilution of 1:200; […]: anti-rabbit polyclonal antibody (TBD Tianjin Biotechnological Center). At a dilution of […]; caspase-3: anti-rabbit polyclonal antibody (Normarkers Fromont, Calif.), at a dilution of 1:200; MMP-2: anti-murine monoclonal antibody (NormarkersFromont, Calif.) at a dilution of 1:200; PPARγ: anti-caprine polyclonal antibody (Santa Cruz Bio. Inc.), at a dilution of 1:500. The specific procedures were performed in accordance with the instructions of the ABC and SP kits, DAB was used for color development, and neutral resin was used for mounting. PBS was used instead of the first antibody as a negative control. […]
# [2] = test system: Bax; assay: Immunohistochemistry protein expression in I/R myocardial tissue: Bax; format: in vivo, rat; conditions: for Bax protein expression, OD value: 5 days, ischemia 30 min, reperfusion 2 h
# Protocol: as §1
# Standard immunohistochemistry ABC and SP methods were employed for staining. Bax: anti-rabbit polyclonal antibody (Santa CruzBio. Inc.) at a dilution of 1:200; […]: anti-rabbit polyclonal antibody (TBD Tianjin Biotechnological Center). At a dilution of […]; caspase-3: anti-rabbit polyclonal antibody (Normarkers Fromont, Calif.), at a dilution of 1:200; MMP-2: anti-murine monoclonal antibody (NormarkersFromont, Calif.) at a dilution of 1:200; PPARγ: anti-caprine polyclonal antibody (Santa Cruz Bio. Inc.), at a dilution of 1:500. The specific procedures were performed in accordance with the instructions of the ABC and SP kits, DAB was used for color development, and neutral resin was used for mounting. PBS was used instead of the first antibody as a negative control. Cells with positive expression of the test polypeptides were of brown-yellow color, with MMP-2 protein being present in acytoplasm, Bcl-2 expressed in nuclear membrane and cytoplasm, Bax mainly in cytoplasm and partially in nucleus, and caspase-3 mainly in nucleus and partially in cytoplasm. CMIAS image analysis system was used for random selection of fields of slices and automatic selection of sites for analysis, and statistic analysis was performed by using mean optical density values or integral optical density values of the obtained myocardial tissue slices.
structure (smiles),measurement,setting,value
"CC1(C)C2CCC1(C)C(OC(=O)C(O)Cc1ccc(O)c(O)c1)C2 (stereo not drawn) [bornyl salvianate ester, bornyl β-(3,4-dihydroxylphenyl)-α-hydroxylpropionate ester]","PPARγ protein expression, OD value",[1]; 5 mg/kg ip,0.16 ± 0.05
same,"PPARγ protein expression, OD value",[1]; 15 mg/kg ip,0.18 ± 0.06
same,"PPARγ protein expression, OD value",[1]; 35 mg/kg ip,0.18 ± 0.10
same,"Bax protein expression, OD value",[2]; 5 mg/kg ip,0.12 ± 0.03
same,"Bax protein expression, OD value",[2]; 15 mg/kg ip,0.09 ± 0.05
same,"Bax protein expression, OD value",[2]; 35 mg/kg ip,0.07 ± 0.03
same,expression of Bax protein (in words),[2]; myocardial cells I/R,reduce the expression of Bax and caspase-3 proteins
